Measurements taken from patent US9242996B2 (Novartis AG, priority 2013, dated 2016).

Columns and labels:
activated ERK2 [1] = target: T1, activated ERK2 (Homo sapiens (Human), UniProt P28482); assay: Activated ERK2 (20 pM) Kinase Assay (AlphaScreen, ERKtide phosphorylation); type: biochemical; details: 0.02 nM ERK2, 400 nM ERKtide peptide, 35 μM ATP, 30 min preincubation
Method in brief: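 AlphaScreen read-out (anti-phospho-EGFR Thr669 antibody, protein A acceptor/streptavidin donor beads) of ERKtide (400 nM) phosphorylation by 20 pM activated ERK2 at 35 μM ATP.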

activated ERK2 [2] = target: T1, activated ERK2; assay: Activated ERK2 kinase assay, ERK2 New conditions (AlphaScreen, ERKtide phosphorylation); type: biochemical; details: 0.25 nM ERK2, 200 nM ERKtide peptide, 35 μM ATP, 30 min preincubation
Method in brief: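 Read-out is AlphaScreen with anti-phospho-EGFR (Thr669) antibody after EDTA quench and overnight dark incubation. Reaction: 0.25 nM ERK2, 30 min compound preincubation, then 200 nM ERKtide plus 35 µM ATP for 2–3 h at ambient temperature, pH 7.5. IC50 by four-parameter fit.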

T1 sequence (P28482 whole entry): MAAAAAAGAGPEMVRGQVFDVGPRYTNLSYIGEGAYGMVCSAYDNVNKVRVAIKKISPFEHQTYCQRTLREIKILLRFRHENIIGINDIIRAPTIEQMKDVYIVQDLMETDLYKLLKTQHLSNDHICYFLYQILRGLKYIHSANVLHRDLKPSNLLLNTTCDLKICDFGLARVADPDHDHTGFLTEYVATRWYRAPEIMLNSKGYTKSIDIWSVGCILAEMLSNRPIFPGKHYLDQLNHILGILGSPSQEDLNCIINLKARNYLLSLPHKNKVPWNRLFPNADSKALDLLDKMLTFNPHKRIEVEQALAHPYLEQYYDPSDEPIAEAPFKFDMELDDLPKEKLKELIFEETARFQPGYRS

IC50 (activated ERK2 [1])	IC50 (activated ERK2 [2])	Compound
0.536 nM	1.35 nM	C[C@@H](NC(=O)c1ccc(-c2cc(C3CCNC(=O)C3)cnc2N)cc1F)c1cccc(Cl)c1 (mixture of isomers) [Example 120, 4-(2-amino-5-(2-oxopiperidin-4-yl)pyridin-3-yl)-N-((R)-1-(3-chlorophenyl)ethyl)-2-fluorobenzamide]
0.217 nM	0.34 nM	Nc1ncc(C2CCNC(=O)C2)cc1-c1ccc(C(=O)N[C@H](CO)c2cccc(Cl)c2)c(F)c1 (mixture of isomers) [Example 121, 4-(2-amino-5-(2-oxopiperidin-4-yl)pyridin-3-yl)-N-((S)-1-(3-chlorophenyl)-2-hydroxyethyl)-2-fluorobenzamide]
1.87 nM	4.1 nM	CN1CC[C@@H](c2cnc(N)c(-c3ccc(C(=O)N[C@H](CO)c4cccc(Cl)c4)c(F)c3)c2)CC1=O [Example 27, 4-(2-amino-5-((R)-1-methyl-2-oxopiperidin-4-yl)pyridin-3-yl)-N—((S)-1-(3-chlorophenyl)-2-hydroxyethyl)-2-fluorobenzamide]
1.2 nM	2.55 nM	CN1CC[C@H](c2cnc(N)c(-c3ccc(C(=O)N[C@H](CO)c4cccc(Cl)c4)c(F)c3)c2)CC1=O [Example 28, 4-(2-amino-5-((S)-1-methyl-2-oxopiperidin-4-yl)pyridin-3-yl)-N—((S)-1-(3-chlorophenyl)-2-hydroxyethyl)-2-fluorobenzamide]
22.5 nM	69.5 nM	C[C@@H](NC(=O)c1ccc(-c2cc([C@@H]3CCN(C)C(=O)C3)cnc2N)cc1F)c1ccccc1 [Example 30, 4-(2-amino-5-((R)-1-methyl-2-oxopiperidin-4-yl)pyridin-3-yl)-2-fluoro-N—((R)-1-phenylethyl)benzamide]
32 nM	74 nM	C[C@@H](NC(=O)c1ccc(-c2cc([C@H]3CCN(C)C(=O)C3)cnc2N)cc1F)c1ccccc1 [Example 31, 4-(2-amino-5-((S)-1-methyl-2-oxopiperidin-4-yl)pyridin-3-yl)-2-fluoro-N—((R)-1-phenylethyl)benzamide]
1.3 nM	2.48 nM	C[C@@H](NC(=O)c1ccc(-c2cc([C@H]3CCC(=O)N(C)C3)cnc2N)cc1F)c1cccc(Cl)c1 [Example 39, 4-(2-amino-5-((R)-1-methyl-6-oxopiperidin-3-yl)pyridin-3-yl)-N—((R)-1-(3-chlorophenyl)ethyl)-2-fluorobenzamide]
1.26 nM	2.46 nM	C[C@@H](NC(=O)c1ccc(-c2cc([C@@H]3CCC(=O)N(C)C3)cnc2N)cc1F)c1cccc(Cl)c1 [Example 40, 4-(2-amino-5-((S)-1-methyl-6-oxopiperidin-3-yl)pyridin-3-yl)-N—((R)-1-(3-chlorophenyl)ethyl)-2-fluorobenzamide]
0.0604 nM	0.243 nM	Cc1nn(C)cc1-c1cnc(N)c(-c2ccc(C(=O)N[C@H](CO)c3cccc(Cl)c3)c(F)c2)n1 [Example 127, (S)-4-(3-amino-6-(1,3-dimethyl-1H-pyrazol-4-yl)pyrazin-2-yl)-N-(1-(3-chlorophenyl)-2-hydroxyethyl)-2-fluorobenzamide]
0.041 nM	0.145 nM	Cc1nn(C)cc1-c1cnc(N)c(-c2ccc(C(=O)N[C@H](CO)c3cccc(Cl)c3)c(F)c2)c1 [Example 152, (S)-4-(2-amino-5-(1,3-dimethyl-1H-pyrazol-4-yl)pyridin-3-yl)-N-(1-(3-chlorophenyl)-2-hydroxyethyl)-2-fluorobenzamide]
0.0785 nM	0.158 nM	COCCn1cc(-c2cnc(N)c(-c3ccc(C(=O)N[C@H](CO)c4cccc(Cl)c4)c(F)c3)c2)cn1 [Example 172, (S)-4-(2-amino-5-(1-(2-methoxyethyl)-1H-pyrazol-4-yl)pyridin-3-yl)-N-(1-(3-chlorophenyl)-2-hydroxyethyl)-2-fluorobenzamide]
	1.68 nM	C[C@@H](NC(=O)c1ccc(-c2nc([C@H]3CC[C@H](O)CC3)cnc2N)cc1F)c1cccc(Cl)c1 [Example 415, 4-(3-amino-6-((1r,4R)-4-hydroxy-cyclohexyl)pyrazin-2-yl)-N-((R)-1-(3-chlorophenyl)ethyl)-2-fluorobenzamide]
	5.68 nM	C[C@@H](NC(=O)c1ccc(-c2nc([C@H]3CC[C@@H](O)CC3)cnc2N)cc1F)c1cccc(Cl)c1 [Example 416, 4-(3-amino-6-((1s,4S)-4-hydroxy-cyclohexyl)pyrazin-2-yl)-N-((R)-1-(3-chlorophenyl)ethyl)-2-fluorobenzamide]

More lines, now with the values behind:

Compound	IC50 (activated ERK2 [1])	IC50 (activated ERK2 [2])
CS(=O)(=O)[C@H]1CC[C@@H](c2cnc(N)c(-c3ccc(C(=O)NCc4ccccc4)c(F)c3)n2)CC1 [Example 16, 4-(3-amino-6-((1s,4s)-4-(methylsulfonyl)cyclohexyl)pyrazin-2-yl)-N-benzyl-2-fluorobenzamide]	197 nM	206 nM
CO[C@H]1CC[C@H](c2cnc(N)c(-c3ccc(C(=O)NCc4ccccc4)c(F)c3)n2)CC1 [Example 116, 4-(3-amino-6-((1r,4r)-4-methoxycyclohexyl)pyrazin-2-yl)-N-benzyl-2-fluorobenzamide]	9.42 nM	18.9 nM
Cc1c(-c2cnc(N)c(-c3ccc(C(=O)N[C@H](CO)c4cccc(Cl)c4)c(F)c3)c2)cnn1C [Example 151, (S)-4-(2-amino-5-(1,5-dimethyl-1H-pyrazol-4-yl)pyridin-3-yl)-N-(1-(3-chlorophenyl)-2-hydroxyethyl)-2-fluorobenzamide]	0.0233 nM	0.115 nM
Nc1ncc([C@H]2CC[C@H](N)CC2)nc1-c1ccc(C(=O)N[C@H](CO)c2cccc(Cl)c2)c(F)c1 [Example 191, 4-(3-amino-6-((1r,45)-4-aminocyclohexyl)pyrazin-2-yl)-N—((S)-1-(3-chlorophenyl)-2-hydroxyethyl)-2-fluorobenzamide]	1.49 nM	4.53 nM
CCn1cc(-c2cnc(N)c(-c3ccc(C(=O)N[C@H](C)c4cc(F)cc(S(C)(=O)=O)c4)c(F)c3)c2)cn1 [Example 313, (R)-4-(2-amino-5-(1-ethyl-1H-pyrazol-4-yl)pyridin-3-yl)-2-fluoro-N-(1-(3-fluoro-5-(methylsulfonyl)phenyl)ethyl) benzamide]		0.617 nM
CCn1cc(-c2cnc(N)c(-c3ccc(C(=O)N[C@H](CO)c4ccccc4)c(F)c3)c2)cn1 [Example 314, (S)-4-(2-amino-5-(1-ethyl-1H-pyrazol-4-yl)pyridin-3-yl)-2-fluoro-N-(2-hydroxy-1-phenylethyl) benzamide]		1.48 nM
Nc1ncc(C2CNC(=O)C2)cc1-c1ccc(C(=O)NCc2ccccc2)c(F)c1 (stereo not drawn) [Example 316, 4-(2-amino-5-(5-oxopyrrolidin-3-yl)pyridin-3-yl)-N-benzyl-2-fluorobenzamide]		330 nM
Cc1ccnc(CNC(=O)c2ccc(-c3cc(C4CCOCC4)cnc3N)cc2F)n1 [Example 317, 4-(2-amino-5-(tetrahydro-2H-pyran-4-yl)pyridin-3-yl)-2-fluoro-N-((4-methylpyrimidin-2-yl)methyl) benzamde]		1340 nM
NC(=O)c1ccc(-c2nc(C3CCOCC3)cnc2N)cc1F [Example 319, 4-(3-amino-6-(tetrahydro-2H-pyran-4-yl)pyrazin-2-yl)-2-fluorobenzamide]		151 nM
CNC(=O)c1ccc(-c2nc(C3CCOCC3)cnc2N)cc1F [Example 320, 4-(3-amino-6-(tetrahydro-2H-pyran-4-yl)pyrazin-2-yl)-2-fluoro-N-methylbenzamide]		354 nM
Nc1ncc(C2CCOCC2)nc1-c1ccc(C(=O)N2CCOC[C@@H]2c2ccccc2)cc1 [Example 322, (S)-(4-(3-amino-6-(tetrahydro-2H-pyran-4-yl)pyrazin-2-yl)phenyl)(3-phenylmorpholino) methanone]		91.2 nM
CS(=O)(=O)c1cccc(CNC(=O)c2ccc(-c3nc(C4CCOCC4)cnc3N)cc2)c1 [Example 323, 4-(3-amino-6-(tetrahydro-2H-pyran-4-yl)pyrazin-2-yl)-N-(3-(methylsulfonyl)benzyl)benzamide]		3.29 nM
NC[C@@H](NC(=O)c1ccc(-c2nc(C3CCOCC3)cnc2N)cc1F)c1ccccc1 [Example 326, (S)-N-(2-amino-1-phenylethyl)-4-(3-amino-6-(tetrahydro-2H-pyran-4-yl)pyrazin-2-yl)-2-fluorobenzamide]		0.253 nM
Nc1ncc(C2CCOCC2)nc1-c1ccc(C(=O)N[C@H](CF)c2ccccc2)cc1 [Example 327, (S)-4-(3-amino-6-(tetrahydro-2H-pyran-4-yl)pyrazin-2-yl)-N-(2-fluoro-1-phenylethyl) benzamide]		54.2 nM
Nc1ncc(C2CCC3(CC2)OCCO3)nc1-c1ccc(C(=O)NCc2ccccc2)c(F)c1 [Example 413, 4-(3-amino-6-(1,4-dioxaspiro[4.5]decan-8-yl)pyrazin-2-yl)-N-benzyl-2-fluorobenzamide]		204 nM
C[C@@H](NC(=O)c1ccc(-c2nc([C@H]3CC[C@H](O)CC3)cnc2N)cc1F)c1cc(F)cc(S(C)(=O)=O)c1 [Example 419, 4-(3-amino-6-((1r,4R)-4-hydroxy-cyclohexyl)pyrazin-2-yl)-2-fluoro-N-((R)-1-(3-fluoro-5-(methylsulfonyl)phenyl)ethyl) benzamide]		0.853 nM
C[C@@H](NC(=O)c1ccc(-c2nc([C@H]3CC[C@@H](O)CC3)cnc2N)cc1F)c1cc(F)cc(S(C)(=O)=O)c1 [Example 420, 4-(3-amino-6-((1s,4S)-4-hydroxy-cyclohexyl)pyrazin-2-yl)-2-fluoro-N-((R)-1-(3-fluoro-5-(methylsulfonyl)phenyl)ethyl) benzamide]		1.95 nM
